Results published in article PMC12631437, “Evaluation of the Activity of 4‑Quinolones against Multi-Life Stages of Plasmodium spp” (ACS Omega, 2025).
Read-outs that look alike come from different tables or passages of the source.

Key:
[1] = test system: P. berghei sexual phases in An. stephensi; test: In vivo transmission-blocking assay, P. berghei infected CD1 mice, An. stephensi; parameters: species or system Plasmodium berghei; conditions: positive control, 25 mg/kg x 2/12h
Method: For this assay, a colony of An. stephensi was used. The lab-reared An. stephensi was kept under controlled conditions, with a temperature of 26 °C ± 1 °C, a 12/12 h light/dark cycle, a relative humidity of 70% ± 10%, and fed a 30% sugar solution as needed.
Female CD1 mice (4 to 6 weeks old) were infected by intraperitoneal inoculation (i.p.) containing 10 million erythrocytes infected with P. berghei expressing the GFP fluorescent protein. After 4 days, when parasites in the sexual stages were detected via Giemsa-stained blood smears, mice with similar gametocytemia and parasitemia were randomly divided into three groups of two animals each. The groups of two mices were treated orally with compound 1 at two doses of 50 mg/kg, spaced 12 h apart. […] Following the second dose, mice were anesthetized and placed in individual cages containing approximately 50 female A. stephensi mosquitoes, which had been starved for 24 h before the assay. Blood feeding lasted for 30 min, after which unfed mosquitoes were removed. Engorged females were maintained in an insectary at 21 ± 1 °C and 60% relative humidity, receiving a 30% glucose solution.
A group of 10 mosquitoes was set aside to assess sporozoite development in salivary glands, following a protocol similar to the one described previously, with dissections performed 21 days postblood meal. Additionally, 10 μL of mouse blood was collected immediately after treatment with the compounds and incubated at room temperature for 15 min. Exflagellation was observed under optical microscopy to evaluate the effect of 4-quinolone-derived molecules on microgametocyte activity.

[2] = test system: Huh-7 cells; test: Alamar Blue cell confluency (cytotoxicity) in Huh-7 cells; assay type: cell-based
Method: For compound dilution, a medium containing 1:1000 gentamicin (G) and 1:300 fungizone (F) was used. Cells were seeded at 1 × 10^4 cells/well in 96-well plates and incubated at 37 °C with 5% CO2. After 24 h, compounds were diluted in RPMI+F+G, and after removal of the culture medium, added to the cells in triplicate. […] Following incubation for 1 h at 37 °C, 5% CO2, the cells were infected with luciferase-expressing P. berghei sporozoites (4,000 parasites per well) freshly extracted from the salivary glands of infected mosquitoes reared at the GIMM insectarium. The viability of Huh-7 cells exposed to the compounds was assessed 46 h later by the AlamarBlue assay (Invitrogen, UK) measurement, and parasite burden was measured 48 h after sporozoite addition using a bioluminescence assay (Biotium). IC50 values were calculated using GraphPad Prism through nonlinear regression analysis of normalized dose–response curves.
On the first day of the assay, the compounds were diluted at 10 and 1 μM in cRPMI medium supplemented with fungizone. and gentamicin. The culture medium of Huh-7 cells was removed and replaced with compound dilutions in triplicate. As a control, a DMSO dilution mimicking the highest compound concentration used was included. The cells were incubated for 1 h at 37 °C in a 5% CO2 atmosphere.
On the second day of the assay, compound toxicity was assessed by measuring cell confluency using the Alamar Blue/CellTiter Blue reagent. First, reagent aliquots stored at −20 °C were thawed and diluted at a 1:20 ratio in cRPMI. The culture medium was removed and replaced with 80 μL of the solution per well, followed by incubation at 37 °C and 5% CO2 for 1 h and 30 min. Fluorescence was measured using a plate reader with the Tecan i-Control software.

[3] = test system: P. falciparum oocyst development; parameters: method as in PMID 12878530, PMID 17361016; conditions: studies primarily focused on P. falciparum; ref 27;28; cited from earlier work
[4] = test system: Plasmodium falciparum 3D7 sensitive strain; test: SYBR Green growth assay, asexual blood stages, 3D7 sensitive strain; assay type: cell-based
Method: (§1) Parasite strains SB1-A6, 7G8, V1/S, and HB3 were acquired from BEI-MR4, while the ATQ R1 strain, carrying a V259L gene mutation, was generated in-house. […] Parasitemia was monitored using Giemsa-stained blood smears.
(§2) Bioassays were conducted with synchronized ring-stage parasites using sorbitol synchronization. Antimalarial compounds were evaluated in 96-well plates, and parasite growth was assessed using a SYBR Green-based fluorescence assay The assays were conducted when the parasite quantity reached at least 70% of the ring stage. Compounds were initially added at specific concentrations in the first wells, followed by serial dilution (1:2) ranging from 20 μM to 0.009 μM. Subsequently, a solution containing parasites in RPMI medium at a hematocrit of 2% was added to each well, and the parasites were then incubated for 72 h.
(§3) The IC50 values were determined using concentration–response curves generated in GraphPad 8 software. Additionally, the resistance index was calculated by comparing IC50 values obtained for the sensitive 3D7 strain with those of the resistant strains.

[5] = test system: late-stage gametocytes (IV and V) of P. falciparum NF54; test: Late-stage gametocyte bioluminescence assay, luciferase-expressing NF54; assay type: cell-based, Plasmodium falciparum; conditions: for Pf gametocytes inhibition: 1 μM
Method: For the in vitro culture of sexual stages of P. falciparum NF54 Luminescent strain, the Tripathi protocol was followed.
Parasite asexual stages were synchronized, and ring-stage parasites were incubated with a parasite-conditioned medium to induce stress and trigger gametocyte induction. After sexually committed parasites invaded new erythrocytes, N-acetylglucosamine was added to prevent further invasion and clear residual asexual parasites.
When a predominance of late stage (IV and V) gametocytes was identified and counted together, , the MACS magnetic system was used for gametocyte enrichment, as previously described. ,
The column content was eluted with RPMI medium into a 15 mL Falcon tube until translucent medium appeared, yielding ∼ 10 mL of eluate. The sample was centrifuged at 1500 rpm for 5 min at 37 °C, the supernatant discarded, and the pellet washed with preheated RPMI medium containing albumax. A 1 μL pellet sample was used to prepare a Giemsa-stained smear for gametocytaemia determination by counting 2000 cells. The gametocytemia for each assay were 71%, 64% and 31%. The remaining pellet was adjusted to 1 mL with RPMI medium containing 10% human serum at 37 °C. Total cell counts were performed using a Neubauer chamber with a 10X diluted sample.
Each well contained 200,000 gametocytes in 150 μL without erythrocytes. After 48 h of incubation, a luciferase kit (Promega) was used to reveal the assay. Eighty microliters of supernatant were discarded, and the pellet was homogenized in the remaining content. Forty microliters of the sample were transferred to a clear 96-well plate containing lysis solution (1X), gently mixed, and moved to a white-bottomed 96-well plate. Luciferase (40 μL) was added, and luminescence was measured using a microplate reader with a 10-s integration time.

[6] = test system: P. berghei hepatic stages; test: Hepatic stage bioluminescence assay, Huh-7 cells infected with luciferase-expressing sporozoites; assay type: cell-based, Plasmodium berghei; conditions: read-out: IC50 (μM) Pb liver stages
Method: Huh-7 cells were cultured in RPMI 1640 medium (Sigma) supplemented with 10% v/v fetal bovine serum (FBS), 1% v/v penicillin/streptomycin, 1% v/v glutamine, 1% v/v nonessential amino acids, and 10 mM HEPES, pH 7. For compound dilution, a medium containing 1:1000 gentamicin (G) and 1:300 fungizone (F) was used. Cells were seeded at 1 × 10^4 cells/well in 96-well plates and incubated at 37 °C with 5% CO2. After 24 h, compounds were diluted in RPMI+F+G, and after removal of the culture medium, added to the cells in triplicate. DMSO and atovaquone were used as negative and positive controls, respectively. Following incubation for 1 h at 37 °C, 5% CO2, the cells were infected with luciferase-expressing P. berghei sporozoites (4,000 parasites per well) freshly extracted from the salivary glands of infected mosquitoes reared at the GIMM insectarium. The viability of Huh-7 cells exposed to the compounds was assessed 46 h later by the AlamarBlue assay (Invitrogen, UK) measurement, and parasite burden was measured 48 h after sporozoite addition using a bioluminescence assay (Biotium). IC50 values were calculated using GraphPad Prism through nonlinear regression analysis of normalized dose–response curves.

[7] = test system: P. berghei exflagellation centers; test: Ex vivo exflagellation assay, blood of P. berghei infected mice; assay type: cell-based, Plasmodium berghei; conditions: 5 μM, 15 min incubation
Method: For the ex vivo assays, a female CD1 mouse between 4 and 5 weeks of age (n = 3) was infected with P. berghei. After 4 days, when the presence of parasites (sexual phases) in the blood was observed by Giemsa-stained blood smear microscopy, the total blood from the mouse was collected into a preheated tube at 37 °C containing RPMI medium supplemented with 20% Fetal Bovine Serum (FBS) and 200 units/mL of heparin as an anticoagulant. The tube was maintained at 37 °C and centrifuged at 1500 rpm for 5 min. The supernatant was discarded, and the blood was resuspended in 20 mL of RPMI medium supplemented with 20% FBS.
One milliliter of resuspended blood was added to each well of a 6-well plate containing 5 μM methylene blue (positive control), test compound 1 at 10 μM and 1 μM, and DMSO (negative control). After 15 min, the wells were homogenized, and 10 μL of the content was collected into an Eppendorf tube and incubated at room temperature for another 15 min. The sample was then transferred to a Neubauer chamber, and exflagellation centers were counted using an optical microscope at 40× magnification.

[8] = test system: P. falciparum HB3 strain; test: SYBR Green growth assay, asexual blood stages, HB3 strain; assay type: cell-based, Plasmodium falciparum; conditions: Plasmodium falciparum
Method: as §1, §2, §3

[9] = test system: P. falciparum V1/S strain; test: microbe, parasite or virus in culture; assay type: cell-based, Plasmodium falciparum; conditions: Plasmodium falciparum, 72 h
Method: (§4) Healthy blood samples for parasite culture were obtained from voluntary donors (approved under protocol #28176720.9.0000.0011), processed to remove white blood cells, and stored at 2 °C–8 °C for up to 15 days. Parasite strains SB1-A6, 7G8, V1/S, and HB3 were acquired from BEI-MR4, while the ATQ R1 strain, carrying a V259L gene mutation, was generated in-house. Infected erythrocytes were cultured in RPMI 1640 medium supplemented with Hepes, sodium bicarbonate, glucose, Albumax, and gentamicin, […], and incubated in a 5% CO2, 5% O2, and 90% N2 gas mixture at 37 °C with daily medium changes. Parasitemia was monitored using Giemsa-stained blood smears.
as §2
(§5) To assess parasite growth, the culture medium was replaced with a lysis solution (Trisbase: 49.31%, EDTA: 30.00%, Saponin: 0.16%, Triton: 0.02%) containing the fluorescent dye SYBR Green (Sigma). After a 30 min incubation, fluorescence readings were taken to determine the 50% inhibitory concentration (IC50) of parasite growth. The IC50 values were determined using concentration–response curves generated in GraphPad 8 software. Additionally, the resistance index was calculated by comparing IC50 values obtained for the sensitive 3D7 strain with those of the resistant strains.

[10] = test system: P. falciparum 7G8 strain; test: SYBR Green growth assay, asexual blood stages, 7G8 strain; assay type: cell-based, Plasmodium falciparum; conditions: Plasmodium falciparum
Method: as §4, §2, §5

[11] = test system: P. falciparum DHODH strain; test: SYBR Green growth assay, asexual blood stages, DHODH resistant mutant; assay type: cell-based, Plasmodium falciparum; conditions: Plasmodium falciparum, 72 h
Method: as §4, §2, §5

[12] = test system: P. falciparum ATQ_R1 strain; test: SYBR Green growth assay, asexual blood stages, ATQ_R1 strain; assay type: cell-based, Plasmodium falciparum; conditions: Plasmodium falciparum, 72 h
Method: as §4, §2, §5

[13] = Plasmodium falciparum, 3D7, 72 h, asexual blood stages, 3D7 sensitive strain, 72 h, read-out: IC50
[14] = Plasmodium falciparum, 3D7, 72 h

## COc1cc(NC(C)CCCN)c2ncccc2c1 (centres unmarked) [Primaquine, reference compound]
[1]
  inhibition of P. berghei oocysts (in vivo): 100%
[2]; 1 μM
  Confluency %: 109 ± 10%
[2]; 10 μM
  Confluency %: 104.0 ± 0.2%

## OC(c1cc(C(F)(F)F)nc2c(C(F)(F)F)cccc12)C1CCCCN1 (centres unmarked) [mefloquine]
[3]
  concentration required to inhibit oocyst development: around 10 μM

## 2-(4-Chlorophenyl)-6-morpholinoquinolin-4(1H)-one [compound 3]
[4]; asexual blood stages, 3D7 sensitive strain, 72 h, read-out: IC50
  IC50: 2900 nM
[5]
  Pf gametocytes inhibition: no activity
[6]; Huh-7 cells, 48 h after sporozoite addition
  IC50: 0.64 ± 0.04 µM

## O=c1cc(-c2ccc(N3CCOCC3)cc2)[nH]c2ccccc12 [compound 4, 2-(4-Morfolinofenil)-quinolin-4(1H)-one]
[4]; [13]
  IC50: > 10000 nM
[5]
  Pf gametocytes inhibition: no activity

## CCCCCCCc1cc(O)c2ccccc2n1 [compound 5, 2-Heptylquinolin-4(1H)-one]
[4]; [14]
  IC50: 1000 ± 200 nM
[5]
  Pf gametocytes inhibition: no activity
[5]; Plasmodium falciparum, NF54, 48 h, read-out: Pf gametocytes Inhibition (%)
  inhibition at 20 µM: 25 ± 4%
[6]; Plasmodium berghei, Huh-7, 48 h
  IC50: 0.3 ± 0.01 µM
[2]; 1 μM
  Confluency %: 100 ± 1%
[2]; 10 μM
  Confluency %: 147 ± 3%

## CN(C)c1ccc2nc3ccc(=[N+](C)C)cc-3sc2c1 [MB, Methylene blue, reference compound]
[5]; Plasmodium falciparum, NF54, 48 h, control at 5 μM, 48 h, read-out: Pf gametocytes Inhibition (%)
  inhibition at 5 µM: 100%
[7]
  inhibition of exflagellation centers (ex vivo): completely inhibited
[7]; Plasmodium berghei, 0.25 h
  inhibition at 5 µM: 100%

## Cc1ccc(-c2cc(O)c3ccccc3n2)cc1 [compound 2, 2-p-Tolylquinolin-4(1H)-one]
[4]; [13]
  IC50: 11000 nM
[6]; Plasmodium berghei, Huh-7 cells, 48 h after sporozoite addition
  IC50: 1.3 ± 0.2 µM
[2]; 1 μM
  Confluency %: 163 ± 14%
[2]; 10 μM
  Confluency %: 104 ± 4%

## CCN(CC)CCCC(C)Nc1ccnc2cc(Cl)ccc12 (centres unmarked) [Chloroquine, reference compound]
[4]; [14]
  IC50: 6 ± 1 nM
[8]; HB3, 72 h
  IC50: 6 ± 2 nM
[9]
  IC50: 170 ± 90 nM
[10]; 7G8, 72 h
  IC50: 220 ± 80 nM

## Cc1cc(Nc2ccc(S(F)(F)(F)(F)F)cc2)n2nc(C(C)(F)F)nc2n1 [DSM 265, reference compound]
[11]
  IC50: > 10000 nM

## CCc1nc(N)nc(N)c1-c1ccc(Cl)cc1 [Pyrimethamine, reference compound]
[4]; [13]
  IC50: 50 ± 8 nM
[8]; HB3 strain, 72 h, read-out: IC50
  IC50: 5200 ± 400 nM
[9]
  IC50: 6000 ± 2400 nM
[10]; 7G8 strain, 72 h, read-out: IC50
  IC50: 6000 ± 1000 nM
[12]
  IC50: > 10000 nM
